According to ChEMBL document CHEMBL6115022, “The Heterogeneous Kinetic Origins of the Binding Properties of Orthosteric Ligands at Heteromeric Nicotinic Acetylcholine Receptors” (J Med Chem, 2025):

How the values were obtained:
[1] = target: T1, Neuronal acetylcholine receptor; alpha4/beta2 (Homo sapiens, UniProt P17787+P43681); test: Displacement of [3H]epibatidine from human alpha4beta2 nAChR extracted from HEK293 cell membrane assessed as association binding constant (Kon) incubated for 240 mins by liquid scintillation counting method; type: cell membranes
[2] = target: T1, Neuronal acetylcholine receptor; alpha4/beta2; test: Displacement of [3H]epibatidine from human alpha4beta2 nAChR extracted from HEK293 cell membrane assessed as residence time incubated for 240 mins by liquid scintillation counting method; type: cell membranes
[3] = target: T1, Neuronal acetylcholine receptor; alpha4/beta2; test: Displacement of [3H]epibatidine from human alpha4beta2 nAChR extracted from HEK293 cell membrane assessed as dissociation binding constant (Koff) incubated for 240 mins by liquid scintillation counting method; type: cell membranes
[4] = target: T2, Neuronal acetylcholine receptor; alpha3/beta4 (Rattus norvegicus) (UniProt P04757+P12392); test: Displacement of [3H]epibatidine from rat alpha3beta4 nAChR extracted from HEK293 cell membrane assessed as association binding constant (Kon) incubated for 60 to 120 mins by liquid scintillation counting method; type: cell membranes; details: filed as agonist, time lower 60.0 min, time upper […]
[5] = Selectivity index, ratio of Ki for displacement of [3H]epibatidine from rat alpha3beta4 nAChR extracted from HEK293 cell membrane to Ki for displacement of [3H]epibatidine from human alpha4beta2 nAChR extracted from HEK293 cell membrane
[6] = target: T2, Neuronal acetylcholine receptor; alpha3/beta4 (Rattus norvegicus); test: Displacement of [3H]epibatidine from rat alpha3beta4 nAChR extracted from HEK293 cell membrane assessed as dissociation binding constant (Koff) incubated for 60 to 120 mins by liquid scintillation counting method; type: cell membranes; details: filed as agonist, time lower 60.0 min, time upper […]
[7] = target: T1, Neuronal acetylcholine receptor; alpha4/beta2; test: Displacement of [3H]epibatidine from human alpha4beta2 nAChR extracted from HEK293 cell membrane assessed as dissociation constant incubated for 240 mins by liquid scintillation counting method; type: cell membranes
[8] = target: T3, Neuronal acetylcholine receptor; alpha3/beta4 (Rattus norvegicus, UniProt P04757+P12392); test: Displacement of [3H]epibatidine from rat alpha3beta4 nAChR extracted from HEK293 cell membrane assessed as inhibition constant incubated for 60 to 120 mins by liquid scintillation counting method; type: cell membranes
[9] = target: T2, Neuronal acetylcholine receptor; alpha3/beta4 (Rattus norvegicus); test: Displacement of [3H]epibatidine from rat alpha3beta4 nAChR extracted from HEK293 cell membrane assessed as residence time incubated for 60 to 120 mins by liquid scintillation counting method; type: cell membranes; details: filed as agonist, time lower 60.0 min, time upper […]
[10] = target: T1, Neuronal acetylcholine receptor; alpha4/beta2; test: Displacement of [3H]epibatidine from human alpha4beta2 nAChR extracted from HEK293 cell membrane assessed as inhibition constant incubated for 240 mins by liquid scintillation counting method; type: cell membranes
[11] = target: T3, Neuronal acetylcholine receptor; alpha3/beta4; test: Displacement of [3H]epibatidine from rat alpha3beta4 nAChR extracted from HEK293 cell membrane assessed as dissociation constant incubated for 60 to 120 mins by liquid scintillation counting method; type: cell membranes
[12] = Selectivity index, ratio of K(off) for displacement of [3H]epibatidine from human alpha4beta2 nAChR extracted from HEK293 cell membrane to K(off) for displacement of [3H]epibatidine from rat alpha3beta4 nAChR extracted from HEK293 cell membrane
[13] = Selectivity index, ratio of K(on) for displacement of [3H]epibatidine from human alpha4beta2 nAChR extracted from HEK293 cell membrane to K(on) for displacement of [3H]epibatidine from rat alpha3beta4 nAChR extracted from HEK293 cell membrane
[14] = target: T1, Neuronal acetylcholine receptor; alpha4/beta2; test: Displacement of [3H]epibatidine from human alpha4beta2 nAChR extracted from HEK293 cell membrane assessed as fold increase in association binding constant (Kon) incubated for 240 mins by liquid scintillation counting method relative to (+)-DHbetaE; type: cell membranes; details: filed as antagonist
[15] = target: T1, Neuronal acetylcholine receptor; alpha4/beta2; test: Displacement of [3H]epibatidine from human alpha4beta2 nAChR extracted from HEK293 cell membrane assessed as fold increase in […] binding constant (Koff) incubated for 240 mins by liquid scintillation counting method relative to (+)-DHbetaE; type: cell membranes; details: filed as antagonist

T3 sequence (P04757 whole entry): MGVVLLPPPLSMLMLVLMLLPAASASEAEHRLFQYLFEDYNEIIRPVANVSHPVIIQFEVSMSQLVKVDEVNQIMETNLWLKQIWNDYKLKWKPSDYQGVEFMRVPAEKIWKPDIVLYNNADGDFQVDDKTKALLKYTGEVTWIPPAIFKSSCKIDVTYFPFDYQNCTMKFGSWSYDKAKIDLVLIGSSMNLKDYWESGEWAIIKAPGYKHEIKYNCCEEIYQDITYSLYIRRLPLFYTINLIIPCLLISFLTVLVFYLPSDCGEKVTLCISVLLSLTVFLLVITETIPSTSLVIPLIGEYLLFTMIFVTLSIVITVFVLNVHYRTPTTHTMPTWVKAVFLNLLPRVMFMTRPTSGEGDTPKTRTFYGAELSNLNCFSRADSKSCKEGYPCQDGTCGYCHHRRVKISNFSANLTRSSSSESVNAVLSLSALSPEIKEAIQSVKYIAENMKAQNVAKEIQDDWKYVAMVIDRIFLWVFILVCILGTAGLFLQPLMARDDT
T3 sequence (P12392 whole entry): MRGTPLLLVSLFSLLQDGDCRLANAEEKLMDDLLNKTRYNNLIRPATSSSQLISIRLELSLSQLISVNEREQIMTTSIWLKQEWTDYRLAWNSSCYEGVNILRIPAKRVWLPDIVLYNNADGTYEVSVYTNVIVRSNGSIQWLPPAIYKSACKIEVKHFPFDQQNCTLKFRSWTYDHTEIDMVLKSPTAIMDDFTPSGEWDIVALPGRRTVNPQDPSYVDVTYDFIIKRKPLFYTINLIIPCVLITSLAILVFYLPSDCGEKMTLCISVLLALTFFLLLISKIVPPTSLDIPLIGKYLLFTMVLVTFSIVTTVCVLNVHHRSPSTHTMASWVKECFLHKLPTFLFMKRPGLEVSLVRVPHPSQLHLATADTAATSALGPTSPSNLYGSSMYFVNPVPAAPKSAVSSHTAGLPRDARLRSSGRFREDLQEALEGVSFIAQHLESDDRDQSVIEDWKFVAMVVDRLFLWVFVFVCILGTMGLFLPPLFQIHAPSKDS
T1 sequence (P17787 whole entry): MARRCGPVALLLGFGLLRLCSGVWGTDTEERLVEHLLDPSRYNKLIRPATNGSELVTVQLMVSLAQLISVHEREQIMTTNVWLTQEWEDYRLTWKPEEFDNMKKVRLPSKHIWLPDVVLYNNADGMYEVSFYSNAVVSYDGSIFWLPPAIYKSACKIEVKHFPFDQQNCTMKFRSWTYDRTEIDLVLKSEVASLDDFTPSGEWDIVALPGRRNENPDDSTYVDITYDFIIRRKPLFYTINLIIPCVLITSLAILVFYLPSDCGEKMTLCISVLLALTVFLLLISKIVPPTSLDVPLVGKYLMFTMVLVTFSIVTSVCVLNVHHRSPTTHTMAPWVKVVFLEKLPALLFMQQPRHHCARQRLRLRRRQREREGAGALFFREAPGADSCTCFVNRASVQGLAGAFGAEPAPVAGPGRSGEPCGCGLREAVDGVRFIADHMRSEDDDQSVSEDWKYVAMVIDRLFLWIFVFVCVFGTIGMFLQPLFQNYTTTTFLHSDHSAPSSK
T1 sequence (P43681 whole entry): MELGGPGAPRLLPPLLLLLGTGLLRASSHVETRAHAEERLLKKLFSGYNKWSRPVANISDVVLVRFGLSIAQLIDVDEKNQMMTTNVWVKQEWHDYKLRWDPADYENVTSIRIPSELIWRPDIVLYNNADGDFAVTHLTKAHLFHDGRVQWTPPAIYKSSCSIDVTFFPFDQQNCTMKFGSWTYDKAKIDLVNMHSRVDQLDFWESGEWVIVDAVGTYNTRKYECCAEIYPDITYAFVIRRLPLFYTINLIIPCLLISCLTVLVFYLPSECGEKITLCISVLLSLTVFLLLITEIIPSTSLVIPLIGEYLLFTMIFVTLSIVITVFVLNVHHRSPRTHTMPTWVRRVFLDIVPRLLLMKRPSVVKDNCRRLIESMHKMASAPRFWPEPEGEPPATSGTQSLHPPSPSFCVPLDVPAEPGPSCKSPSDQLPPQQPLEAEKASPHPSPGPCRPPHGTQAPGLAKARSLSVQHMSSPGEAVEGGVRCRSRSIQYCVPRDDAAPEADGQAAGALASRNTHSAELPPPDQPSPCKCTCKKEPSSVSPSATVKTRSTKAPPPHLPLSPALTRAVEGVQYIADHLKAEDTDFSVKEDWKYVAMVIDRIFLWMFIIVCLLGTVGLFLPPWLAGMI

Compound	K ([1]; filed as antagonist)	TIME ([2]; filed as antagonist)	K ([3]; filed as antagonist)	K ([1]; filed as agonist)	K [4]	TIME ([2]; filed as agonist)	Ratio Ki [5]	K [6]	Kd [7]	Ki [8]	TIME [9]	Ki [10]	Kd [11]	K ([3]; filed as agonist)	Ratio [12]	Ratio [13]	Ratio [14]	Ratio [15]
CO[C@H]1CC=C2CCN3CCC4=C(CC(=O)OC4)[C@]23C1	0.3 10^-3/nM/min	1.87 h	0.01 min⁻¹	–	–	–	–	–	–	–	–	–	–	–	–	–	–	–
C[N+](C)(C)CCOC(N)=O [CARBAMOYLCHOLINE]	–	–	–	16700 M⁻¹ s⁻¹	0.31 10^-3/nM/min	0.09 h	8	0.33 min⁻¹	200 nM	2000 nM	0.06 h	56 nM	1500 nM	0.25 min⁻¹	–	–	–	–
OCCCCC#Cc1cncc(OC[C@@H]2CCN2)c1	–	–	–	1.12e+07 M⁻¹ s⁻¹	0.2 10^-3/nM/min	4.5 h	7000	0.39 min⁻¹	0.006 nM	2200 nM	0.0467 h	0.017 nM	2200 nM	0.004 min⁻¹	100	3000	–	–
CCOc1cncc(/C=C/CCNC)c1	–	–	–	4.83e+06 M⁻¹ s⁻¹	0.064 10^-3/nM/min	0.0417 h	7000	0.77 min⁻¹	1.7 nM	25000 nM	0.0283 h	0.8 nM	12000 nM	0.57 min⁻¹	–	–	–	–
CN1CCC[C@H]1c1cccnc1	–	–	–	3.83e+06 M⁻¹ s⁻¹	33300 M⁻¹ s⁻¹	0.0683 h	–	0.3 min⁻¹	–	–	0.0683 h	–	–	0.27 min⁻¹	–	–	–	–
Cc1ncccc1OC[C@@H]1CCCN1 [POZANICLINE]	–	–	–	517000 M⁻¹ s⁻¹	0.03 10^-3/nM/min	0.0783 h	–	0.44 min⁻¹	–	10000 nM	0.04 h	–	17000 nM	0.23 min⁻¹	–	–	–	–
O=c1cccc2n1C[C@@H]1CNC[C@H]2C1 [CYTISINICLINE]	–	–	–	4.33e+06 M⁻¹ s⁻¹	33300 M⁻¹ s⁻¹	0.367 h	150	0.24 min⁻¹	0.21 nM	110 nM	0.075 h	0.2 nM	150 nM	0.05 min⁻¹	–	–	–	–
CO[C@H]1CC=C2CCN3CCc4ccc(O)cc4[C@]23C1	750000 M⁻¹ s⁻¹	0.15 h	0.12 min⁻¹	–	–	–	–	–	2.9 nM	–	–	3.1 nM	–	–	–	–	130	13
Clc1ccc(C2CC3CCC2N3)cn1 (racemic)	–	–	–	2.17e+07 M⁻¹ s⁻¹	2.17e+07 M⁻¹ s⁻¹	1.4 h	–	0.17 min⁻¹	–	–	0.103 h	–	–	0.012 min⁻¹	–	–	–	–
